# Data reported in patent US20240217947A1, “Morpholinylquinazoline Compound, Pharmaceutical compositions thereof and Use Thereof” (SHANGHAI YINGLI PHARMACEUTICAL CO., LTD, priority 2022, published 2024).
# Columns and labels:
# Format in all cases: biochemical
# PI3Kα = PI3Kα (Homo sapiens, UniProt P42336); assay: PI3Kα enzyme activity inhibition IC50 evaluation assay (ADP-Glo Kinase Assay); conditions: ATP 25 μM, PIP2 50 μg/mL, 1 hour room temperature, read-out: PI3K-α IC50
# Experimental: (§1) Effec Example 1 IC50 evaluation assay for PI3Kα, PI3Kδ, PI3Kβ and PI3Kγ enzyme activity inhibition
# (§2) The experiment was performed using the ADP-Glo Kinase Assay kit, following the instructions. The following buffer solutions were prepared: 50 mM HEPES, pH 7.5, 3 mM MgCl2, 1 mM EGTA, 100 mM NaCl, 0.03% CHAPS, 2 mM DTT. The test compound samples were dissolved in DMSO and added to the screening system at a certain starting concentration such as 10 μM, 3-fold dilution, while setting up both DMSO control and no kinase control. The optimal concentrations of PI3Kα, PI3Kδ, PI3Kβ and PI3Kγ enzymes, substrate (PIP2) and ATP were prepared in buffer. The enzyme reaction system included: buffer, ATP 25 μM, kinase substrate (PIP2, 50 μg/mL), kinases [PI3Kα (0.15 μg/mL), PI3Kδ (1.2 μg/mL), PI3Kβ (0.3 μg/mL) and PI3Kγ (2.5 μg/mL)], etc. The reaction system was reacted at room temperature for 1 hour. The reaction was terminated by adding a termination reagent (ADP-Glo reagent, 5 μL), and the ADP content in the system was detected using a detection reagent (Kinase Detection Reagent, 10 μL). Signal data were collected using the Envision instrument. Calculate the percentage of (%) inhibition according to the following formula: % inhibition=(DMSO control signal value−sample signal value)/(DMSO control signal value−no-kinase control signal value). The IC50 value was obtained by fitting the curve using the formula Y=Bottom+(Top-Bottom)/(1+(IC50/X)^HillSlope).
# PI3Kδ = PI3Kδ (Homo sapiens, UniProt O00329); assay: PI3Kδ enzyme activity inhibition IC50 evaluation assay (ADP-Glo Kinase Assay); conditions: ATP 25 μM, PIP2 50 μg/mL, 1 hour room temperature, read-out: PI3K-δ IC50
# Sequence of PI3Kδ (O00329 whole entry, species assumed): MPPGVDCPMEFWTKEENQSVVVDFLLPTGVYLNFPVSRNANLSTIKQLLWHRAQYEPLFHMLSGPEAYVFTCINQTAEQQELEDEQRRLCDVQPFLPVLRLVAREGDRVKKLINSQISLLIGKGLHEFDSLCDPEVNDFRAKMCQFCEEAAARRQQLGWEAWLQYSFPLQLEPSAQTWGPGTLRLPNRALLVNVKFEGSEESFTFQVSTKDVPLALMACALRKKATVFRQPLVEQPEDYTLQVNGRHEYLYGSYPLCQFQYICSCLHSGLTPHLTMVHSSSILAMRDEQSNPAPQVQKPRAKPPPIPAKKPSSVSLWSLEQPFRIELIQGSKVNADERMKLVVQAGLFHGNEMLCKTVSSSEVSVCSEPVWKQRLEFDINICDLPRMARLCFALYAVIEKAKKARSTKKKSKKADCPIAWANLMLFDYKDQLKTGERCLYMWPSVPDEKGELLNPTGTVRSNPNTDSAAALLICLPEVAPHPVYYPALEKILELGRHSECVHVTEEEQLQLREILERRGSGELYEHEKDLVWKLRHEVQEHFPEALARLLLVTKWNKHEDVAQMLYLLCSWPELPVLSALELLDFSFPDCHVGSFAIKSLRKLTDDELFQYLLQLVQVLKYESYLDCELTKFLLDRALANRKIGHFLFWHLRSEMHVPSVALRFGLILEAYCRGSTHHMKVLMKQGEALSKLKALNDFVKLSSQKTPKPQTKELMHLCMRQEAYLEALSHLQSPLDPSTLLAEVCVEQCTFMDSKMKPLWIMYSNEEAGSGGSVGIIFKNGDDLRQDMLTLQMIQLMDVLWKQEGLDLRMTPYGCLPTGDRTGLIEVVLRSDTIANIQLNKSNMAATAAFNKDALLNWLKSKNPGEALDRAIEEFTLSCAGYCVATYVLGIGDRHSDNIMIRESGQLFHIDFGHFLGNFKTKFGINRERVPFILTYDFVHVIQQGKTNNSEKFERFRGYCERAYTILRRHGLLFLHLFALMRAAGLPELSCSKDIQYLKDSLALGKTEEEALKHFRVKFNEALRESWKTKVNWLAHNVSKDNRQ
# Sequence of PI3Kδ (P27986 whole entry partner, species assumed): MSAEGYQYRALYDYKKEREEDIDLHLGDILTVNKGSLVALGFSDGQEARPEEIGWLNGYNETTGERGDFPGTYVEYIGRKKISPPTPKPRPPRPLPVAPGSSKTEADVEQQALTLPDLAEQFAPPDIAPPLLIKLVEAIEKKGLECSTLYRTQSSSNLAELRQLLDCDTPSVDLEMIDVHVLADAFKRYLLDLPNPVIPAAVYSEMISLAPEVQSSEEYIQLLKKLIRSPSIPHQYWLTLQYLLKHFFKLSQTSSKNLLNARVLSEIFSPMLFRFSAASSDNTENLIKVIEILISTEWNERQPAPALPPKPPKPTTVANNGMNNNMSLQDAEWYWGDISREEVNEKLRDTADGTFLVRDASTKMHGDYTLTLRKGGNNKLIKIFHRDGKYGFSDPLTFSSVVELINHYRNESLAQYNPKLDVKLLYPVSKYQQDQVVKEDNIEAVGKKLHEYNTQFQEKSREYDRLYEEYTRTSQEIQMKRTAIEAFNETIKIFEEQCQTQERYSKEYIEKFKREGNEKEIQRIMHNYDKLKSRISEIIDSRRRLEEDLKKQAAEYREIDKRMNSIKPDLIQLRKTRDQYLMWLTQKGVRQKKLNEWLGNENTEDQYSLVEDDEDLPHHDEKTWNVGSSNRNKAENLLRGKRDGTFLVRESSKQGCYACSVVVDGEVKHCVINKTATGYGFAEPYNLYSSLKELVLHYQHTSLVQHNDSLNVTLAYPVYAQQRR
# Experimental: as §1, §2
# HDAC6 = biological target: T1, HDAC6 (Homo sapiens, UniProt Q9UBN7); assay: HDAC6 enzyme activity inhibition IC50 evaluation experiment; conditions: HDAC6 5 nM, acetylated peptide 11 μM, trypsin, fluorescence
# T1 sequence (Q9UBN7 1-1215): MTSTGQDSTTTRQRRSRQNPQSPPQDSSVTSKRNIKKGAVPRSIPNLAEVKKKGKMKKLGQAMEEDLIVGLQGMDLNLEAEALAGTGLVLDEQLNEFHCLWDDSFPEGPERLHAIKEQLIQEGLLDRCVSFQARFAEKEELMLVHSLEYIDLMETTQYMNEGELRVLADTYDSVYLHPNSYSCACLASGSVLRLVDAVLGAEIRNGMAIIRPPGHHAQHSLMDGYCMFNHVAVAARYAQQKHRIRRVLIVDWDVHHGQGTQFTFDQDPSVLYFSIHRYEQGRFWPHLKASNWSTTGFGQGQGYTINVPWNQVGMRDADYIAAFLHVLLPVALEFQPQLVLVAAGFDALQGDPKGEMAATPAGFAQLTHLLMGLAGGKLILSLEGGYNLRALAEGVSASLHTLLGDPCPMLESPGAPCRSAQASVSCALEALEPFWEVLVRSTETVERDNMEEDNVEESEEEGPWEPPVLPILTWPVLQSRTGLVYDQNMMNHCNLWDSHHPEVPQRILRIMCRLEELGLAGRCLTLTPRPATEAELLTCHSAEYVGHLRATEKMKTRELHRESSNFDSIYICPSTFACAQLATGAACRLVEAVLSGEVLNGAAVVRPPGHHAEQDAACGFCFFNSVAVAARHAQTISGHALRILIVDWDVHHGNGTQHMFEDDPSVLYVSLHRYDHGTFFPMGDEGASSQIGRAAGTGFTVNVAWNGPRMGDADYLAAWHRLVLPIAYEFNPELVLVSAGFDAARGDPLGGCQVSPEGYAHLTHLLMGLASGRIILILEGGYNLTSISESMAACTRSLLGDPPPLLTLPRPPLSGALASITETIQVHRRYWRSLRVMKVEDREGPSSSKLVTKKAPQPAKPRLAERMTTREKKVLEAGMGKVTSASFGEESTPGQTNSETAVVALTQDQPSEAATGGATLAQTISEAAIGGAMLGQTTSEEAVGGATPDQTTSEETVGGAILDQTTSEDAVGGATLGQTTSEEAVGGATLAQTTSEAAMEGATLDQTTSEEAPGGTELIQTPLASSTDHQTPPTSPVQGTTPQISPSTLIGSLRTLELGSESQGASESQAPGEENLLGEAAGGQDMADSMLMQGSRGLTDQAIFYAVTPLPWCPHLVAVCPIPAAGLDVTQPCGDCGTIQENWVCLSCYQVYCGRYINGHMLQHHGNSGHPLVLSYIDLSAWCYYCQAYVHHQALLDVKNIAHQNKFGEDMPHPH
# Experimental: Effect Example 2 HDAC1, HDAC2, HDAC3, HDAC6 enzyme activity inhibition IC50 evaluation experiment
# Buffer solution (50 mM Tris 7.5, 0.01% Tween-20, 50 mM NaCl) was prepared according to the kit instructions, and the enzyme solution and substrate solution (acetylated peptide with the addition of trypsin) were prepared using the buffer solution. The test compound samples were dissolved with DMSO and added to the screening system at a certain starting concentration such as 10 μM, 3-fold dilution, while setting up a DMSO control and no-enzyme control. The enzyme reaction system includes: buffer, enzyme [final concentration: HDAC1=10 nM, HDAC2=4 nM, HDAC3=7 nM, HDAC6=5 nM], substrate (acetylated peptide) [final concentration: Peptide(HDAC1)=8 μM, Peptide(HDAC2)=10 μM, Peptide(HDAC3)=5 μM, Peptide(HDAC6)=11 μM], trypsin [final concentration: Trypsin(HDAC1,2,3)=0.05 μM, Trypsin(HDAC6)=0.1 μM], etc. The enzymes and compounds were reacted at room temperature for 15 min. After adding the substrate and Trypsin, centrifugation was performed for 1 min, and the fluorescence signal data (excitation wavelength 355 nM/emission wavelength 460 nm) was read continuously for 60 min using Envision, and the linear reaction segment was selected to obtain the slope and thus calculate the inhibition rate at that concentration. The IC50 value was obtained by fitting the curve using the formula Y=Bottom+(Top-Bottom)/(1+(IC50/X)^HillSlope).
# Sequence of PI3Kα (P42336 whole entry, species assumed): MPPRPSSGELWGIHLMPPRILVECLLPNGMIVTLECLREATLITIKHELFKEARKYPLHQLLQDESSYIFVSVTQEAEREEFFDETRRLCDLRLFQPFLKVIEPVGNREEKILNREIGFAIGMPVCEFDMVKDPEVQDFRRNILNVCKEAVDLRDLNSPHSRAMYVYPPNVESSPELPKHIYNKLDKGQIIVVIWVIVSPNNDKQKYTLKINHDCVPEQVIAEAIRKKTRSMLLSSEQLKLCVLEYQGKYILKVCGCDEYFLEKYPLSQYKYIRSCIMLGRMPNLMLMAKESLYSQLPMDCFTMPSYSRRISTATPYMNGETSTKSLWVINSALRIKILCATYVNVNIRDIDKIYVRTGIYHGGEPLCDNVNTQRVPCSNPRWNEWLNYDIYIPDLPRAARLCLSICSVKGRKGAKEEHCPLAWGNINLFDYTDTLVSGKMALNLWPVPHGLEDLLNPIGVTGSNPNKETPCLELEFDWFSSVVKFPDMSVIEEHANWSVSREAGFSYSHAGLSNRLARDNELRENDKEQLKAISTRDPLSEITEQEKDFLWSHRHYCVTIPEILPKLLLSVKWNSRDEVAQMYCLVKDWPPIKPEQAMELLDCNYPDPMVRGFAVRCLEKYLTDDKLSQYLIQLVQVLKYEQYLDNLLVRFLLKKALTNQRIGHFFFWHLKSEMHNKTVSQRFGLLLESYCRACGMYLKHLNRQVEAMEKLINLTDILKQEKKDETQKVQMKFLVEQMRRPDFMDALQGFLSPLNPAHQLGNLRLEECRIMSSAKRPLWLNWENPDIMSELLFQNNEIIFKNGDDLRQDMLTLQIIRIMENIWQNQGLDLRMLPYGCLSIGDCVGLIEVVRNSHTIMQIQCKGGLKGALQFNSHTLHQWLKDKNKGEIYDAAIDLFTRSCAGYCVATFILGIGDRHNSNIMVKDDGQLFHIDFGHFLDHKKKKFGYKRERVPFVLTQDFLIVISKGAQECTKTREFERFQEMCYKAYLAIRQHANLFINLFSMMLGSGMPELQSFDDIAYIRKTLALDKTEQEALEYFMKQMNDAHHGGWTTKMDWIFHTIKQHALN
# Sequence of PI3Kα (P27986 whole entry partner, species assumed): as the sequence (P27986 whole entry partner, species assumed) above
Structure (SMILES),IC50 (PI3Kα),IC50 (PI3Kδ),IC50 (HDAC6)
COc1ncc(-c2nc(N3CCOCC3)nc3c(CN4CCC(C(=O)NO)CC4)cc(F)cc23)cc1NS(C)(=O)=O [Compound 1],1000 to 10000 nM,10 to 100 nM,1000 to 10000 nM
COc1ncc(-c2nc(N3CCOCC3)nc3c(CN4CCC(/C=C/C(=O)NO)CC4)cc(F)cc23)cc1NS(C)(=O)=O [Compound 5],,≤ 10 nM,100 to 1000 nM
COc1ncc(-c2nc(N3CCOCC3)nc3c(CN4CCN(CCCCC(=O)NO)CC4)cc(F)cc23)cc1NS(C)(=O)=O [Compound 6],,≤ 10 nM,100 to 1000 nM
COc1ncc(-c2nc(N3CCOCC3)nc3c(OCCCCCC(=O)NO)cc(F)cc23)cc1NS(C)(=O)=O [Compound 8],100 to 1000 nM,10 to 100 nM,≤ 10 nM
COc1ncc(-c2nc(N3CCOCC3)nc3c(CN4CCN(Cc5ccc(C(=O)NO)cc5)CC4)cc(F)cc23)cc1NS(C)(=O)=O [Compound 10],100 to 1000 nM,≤ 10 nM,10 to 100 nM
COc1ncc(-c2nc(N3CCOCC3)nc3c(CN4CCC(OCCC(=O)NO)CC4)cc(F)cc23)cc1NS(C)(=O)=O [Compound 11],1000 to 10000 nM,≤ 10 nM,100 to 1000 nM
COc1ncc(-c2nc(N3CCOCC3)nc3c(CN4CCN(Cc5ncc(C(=O)NO)cn5)CC4)cc(F)cc23)cc1NS(C)(=O)=O [Compound 12],100 to 1000 nM,≤ 10 nM,100 to 1000 nM
COc1ncc(-c2nc(N3CCOCC3)nc3c(CN4CCC(OCCCC(=O)NO)CC4)cc(F)cc23)cc1NS(C)(=O)=O [Compound 13],1000 to 10000 nM,≤ 10 nM,100 to 1000 nM
COc1ncc(-c2nc(N3CCOCC3)nc3c(CN4CCC(N5CCC(C(=O)NO)CC5)CC4)cc(F)cc23)cc1NS(C)(=O)=O [Compound 14],1000 to 10000 nM,10 to 100 nM,1000 to 10000 nM
COc1ncc(-c2nc(N3CCOCC3)nc3c(CN4CCC(CCCCC(=O)NO)CC4)cc(F)cc23)cc1NS(C)(=O)=O [Compound 15],100 to 1000 nM,≤ 10 nM,100 to 1000 nM
COc1ncc(-c2nc(N3CCOCC3)nc3c(CN4CC(OCCOCC(=O)NO)C4)cc(F)cc23)cc1NS(C)(=O)=O [Compound 16],100 to 1000 nM,10 to 100 nM,1000 to 10000 nM
COc1ncc(-c2nc(N3CCOCC3)nc3c(CN4CCC(c5ccc(C(=O)NO)cc5F)CC4)cc(F)cc23)cc1NS(C)(=O)=O [Compound 17],1000 to 10000 nM,≤ 10 nM,10 to 100 nM
O=C(CCCC1CCN(Cc2cc(F)cc3c(-c4cncc(NS(=O)(=O)C5CC5)c4)nc(N4CCOCC4)nc23)CC1)NO [Compound 27],1000 to 10000 nM,10 to 100 nM,
COc1ncc(-c2nc(N3CCOCC3)nc3c(CN4CCC(c5ccc(C(=O)NO)cc5F)CC4)cc(F)cc23)cc1NS(=O)(=O)C(F)(F)F [Compound 29],100 to 1000 nM,≤ 10 nM,
COc1ncc(-c2nc(N3CCOCC3)nc3c(OC4CCN(c5ccc(C(=O)NO)cc5F)CC4)cc(F)cc23)cc1NS(C)(=O)=O [Compound 31],,10 to 100 nM,10 to 100 nM
COc1ncc(-c2nc(N3CCOCC3)nc3c(O[C@H]4CC[C@H](N5CCC(C(=O)NO)CC5)CC4)cc(F)cc23)cc1NS(C)(=O)=O [Compound 32],,≤ 10 nM,1000 to 10000 nM
COc1ncc(-c2nc(N3CCOCC3)nc3c(OC4CCN(Cc5ccc(C(=O)NO)cc5F)CC4)cc(F)cc23)cc1NS(C)(=O)=O [Compound 33],,10 to 100 nM,10 to 100 nM
COc1ncc(-c2nc(N3CCOCC3)nc3c(CN4CCN(c5ccc(C(=O)NO)cc5F)CC4)cc(F)cc23)cc1NS(C)(=O)=O [Compound 34],,10 to 100 nM,10 to 100 nM
COc1ncc(-c2nc(N3CCOCC3)nc3c(OCCc4ccc(C(=O)NO)cc4F)cc(F)cc23)cc1NS(C)(=O)=O [Compound 37],,100 to 1000 nM,
COc1ncc(-c2nc(N3CCOCC3)nc3c(OCc4ccc(C(=O)NO)cc4F)cc(F)cc23)cc1NS(C)(=O)=O [Compound 38],,10 to 100 nM,
